According to the supplement of paper PMC10307832:

How the values were obtained:
Test in all cases: relative viability (nuclei count vs DMSO), 5 days (fraction); higher = more cells survive
[1] = compound: COc1cc(Nc2ncc(F)c(Nc3ccc4c(n3)NC(=O)C(C)(C)O4)n2)cc(OC)c1OC [R406] + CC1(C)CCC(c2ccc(Cl)cc2)=C(CN2CCN(c3ccc(C(=O)NS(=O)(=O)c4ccc(N[C@H](CCN5CCOCC5)CSc5ccccc5)c(S(=O)(=O)C(F)(F)F)c4)cc3)CC2)C1 [Navitoclax] (partner 0.5 µM)
Outline: (§1)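 Five library-drug doses in √10 steps were combined with a fixed anchor-drug dose, or a single drug was given alone, by pin tool to lung cancer cell lines in 1536-well plates the day after seeding. Nuclei were stained and counted after 5 days. Relative viability is the nuclei count in treated wells over that in vehicle wells, taken as the median of duplicate plates.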

[2] = compound: COc1cc(Nc2ncc(F)c(Nc3ccc4c(n3)NC(=O)C(C)(C)O4)n2)cc(OC)c1OC [R406] + COc1cccc2cc(-c3nc([C@H]4CC[C@H](C(=O)O)CC4)n4ncnc(N)c34)[nH]c12 [OSI-027] (partner 0.5 µM)
Outline: as §1

[3] = compound: O=C(/C=C/c1cccnc1)NCCCCC1CCN(C(=O)c2ccccc2)CC1 [Daporinad] + CC1(C)CCC(c2ccc(Cl)cc2)=C(CN2CCN(c3ccc(C(=O)NS(=O)(=O)c4ccc(N[C@H](CCN5CCOCC5)CSc5ccccc5)c(S(=O)(=O)C(F)(F)F)c4)cc3)CC2)C1 [Navitoclax] (partner 0.5 µM)
Outline: as §1

[4] = compound: O=C(/C=C/c1cccnc1)NCCCCC1CCN(C(=O)c2ccccc2)CC1 [Daporinad] + CS(=O)(=O)CCNCc1ccc(-c2ccc3ncnc(Nc4ccc(OCc5cccc(F)c5)c(Cl)c4)c3c2)o1 [Lapatinib] (partner 2 µM)
Outline: as §1

UMC-11
relative viability ([1]; first compound 0.08 µM): 0.357
relative viability ([1]; first compound 0.253 µM): 0.321
relative viability ([1]; first compound 0.8 µM): 0.295
relative viability ([1]; first compound 2.53 µM): 0.288
relative viability ([1]; first compound 8 µM): 0.191
relative viability ([2]; first compound 0.08 µM): 0.429
relative viability ([2]; first compound 0.253 µM): 0.517
relative viability ([2]; first compound 0.8 µM): 0.488
relative viability ([2]; first compound 2.53 µM): 0.463
relative viability ([2]; first compound 8 µM): 0.253
relative viability ([3]; first compound 0.0005 µM): 0.335
relative viability ([3]; first compound 0.001581 µM): 0.33
relative viability ([3]; first compound 0.005 µM): 0.377
relative viability ([3]; first compound 0.01581 µM): 0.288
relative viability ([4]; first compound 0.0005 µM): 0.995
relative viability ([4]; first compound 0.001581 µM): 1.06
relative viability ([4]; first compound 0.005 µM): 1.08
relative viability ([4]; first compound 0.01581 µM): 1.24
